We go through four compounds from patent publication US20150175545A1, “Preparation Method of Fluoro-Substituted Deuterated Diphenylurea” (SUZHOU ZELGEN BIOPHARMACEUTICAL CO., LTD, priority 2012, published 2015).

For series [1], the target named is c-Kit protein tyrosine kinase (Homo sapiens, UniProt P10721). Description: ELISA inhibition of c-Kit protein tyrosine kinase at the molecular level. Format: biochemical. The settings on record: for results (inhibition efficacy): c-Kit and PDGFR-β, efficacy if inhibition rate at 10^-5 mol/L greater than 50%. How it is done: (§1) The activity of diphenylurea compounds for inhibiting c-Kit, PDGFR-β protein tyrosine kinases on molecular level was tested by Enzyme-Linked Immunosorbent Assay (ELISA).
(§2) Reacting substrate Poly(Glu,Tyr)4:1 was bought from Sigma; Monoclonal antibody against tyrosine phosphate PY99 was bought from Santa Cruz; Horseradish peroxidase labeled sheep-against-rat IgG was bought from Calbiochem; ATP, DTT, OPD were bought from Amresco; microplates were bought from Corning; Su11248 was bought from Merk.
(§3) See Roskoski, R., Jr. Sunitinib: a VEGF and PDGF receptor protein kinase and angiogenesis inhibitor. Biochem Biophys Res Commun, 356: 323-328, 2007. The details comprise:
Kinase reaction substrate Poly(Glu,Tyr)4:1 was diluted to 20 μg/ml by potassium-free PBS, and the microplates were coated. Diphenylurea samples to be tested were added in the wells of the coated microplates (the samples to be tested were made from the stock solution of 10^−2 M in DMSO, and diluted to the desired concentration with reaction buffer before use. The resulted solution was added into the wells to get the final concentration of 10^−5 mol/L in 100 μL reaction system). At the same time, the positive control compound Su11248 was added to the positive control wells.
ATP solution diluted with reaction buffer (the final concentration of ATP is 5 μM) and tyrosine kinase for testing diluted with reaction buffer were added in turn. The total volume of reaction system was 100 μL. At the same time, the negative control wells and the control wells without enzyme were set up.
The reaction system was placed in a wet box and shaked for 1 h at 37° C. by shaking shielding from light. After the reaction was completed, plates were washed three times with T-PBS. Antibody PY99 was added (100 μL/well), and plates were shaked for 30 min at 37° C. After the reaction was completed, the plates were washed with three times T-PBS. Horseradish peroxidase labeled sheep-against-rat IgG was added (100 μL/well), and the plates were shaked for 30 min at 37° C. After the reaction was completed, the plates were washed with T-PBS for three times. OPD developing liquid was added (100 μL/well), and reacted for 1-10 min at room temperature shielding from light. 50 μL of 2 M H2SO4 was added to quench the reaction. A492 value was determined using wavelength-adjustable microplates reader VERSAmax.
(§4) The inhibition ratio of samples can be calculated by the following formula: […]
(In an ELISA, binding on a coated surface is turned into a signal by an enzyme label.)

The nature of series [2]: Pharmacokinetic evaluation of CM4306, CM4308 and CM4309 in rats (mixed solution, intragastric). Format: in vivo, SD rats. To be noted: 4 mg/kg intragastric, mixed solution in PEG400, plasma; for MRT inf: read-out: MRT(0-∞).
Description: Blood samples were collected at 0.25, 0.5, 1.0, 2.0, 3.0, 5.0, 7.0, 9.0, 24, 36, 48 and 72 h after the administration.
Series [3] has as its system human liver cancer cell SMMC-7721. Description: Nude mice xenograft model inoculated with SMMC-7721 cells, tumor growth inhibition. The series is classed as in vivo. The settings on record: 30 mg/kg intragastric every day for 2 weeks; for relative tumor increment rate T/C %: effective if T/C ≦40% and p<0.05. The method, then: The establishment of tumor-bearing nude mice xenograft model: SMMC-7721 cells in logarithmic growth period were cultured. After cell number was counted, the cells were suspended in 1×PBS, and the concentration of the cell suspension was adjusted to 1.5×10^7/ml. The tumor cells were inoculated (s.c.) 3×10^6/0.2 ml/mice under the right armpit of nude mice. 45 nude mice were inoculated in total. When the tumor size reached 30-130 mm^3, 34 mice were randomly divided into different groups. […] Administration of testing drugs was started. […] Observation continued upon the withdraw till the tumor volume was larger than 2000 mm^3. The weight of animals and tumor size were tested twice a week during the experiment. […] The formula for calculating the tumor volume (TV) is: TV=a×b^2/2, wherein a and b independently and respectively represent the length and the breadth of the tumor. The formula for calculating the relative tumor volume (RTV) is: RTV=Vt/V0, wherein V0 is the tumor volume at the beginning of the administration, and Vt is […] when measured. The index for evaluating the antitumor activity is relative tumor increment rate T/C (%), and the calculation formula is: T/C (%)=(TRTV/CRTV)×100%, wherein, TRTV is the RTV for the treatment group, and CRTV is the RTV for the negative control group. Evaluation standard for efficacy: it is effective if the relative tumor increment rate T/C (%) is ≦40% and p<0.05 by statistics analysis.

Series [4] has as its target PDGFR-β protein tyrosine kinase (Homo sapiens, UniProt P09619). Kind of series: ELISA inhibition of PDGFR-β protein tyrosine kinase at the molecular level. Format: biochemical. To be noted: 10 μM compound, ATP 5 μM, mean of duplicate experiments. How it is done: as §1, §2, §3
Kinase reaction substrate Poly(Glu,Tyr)4:1 was diluted to 20 μg/ml by potassium-free PBS, and the microplates were coated. […]
The reaction system was placed in a wet box and shaked for 1 h at 37° C. by shaking shielding from light. […] A492 value was determined using wavelength-adjustable microplates reader VERSAmax.
as §4

[5] abbreviates: male, SD, rat, plasma, po, 4 mg/kg, individual rat.
[6] abbreviates: male, SD, rat, plasma, po, 4 mg/kg, mean value of 3 rats.
Where [7] appears, read: male, SD, rat, plasma, po, 4 mg/kg, mean value of 3 rats, read-out: Cmax.
[8] abbreviates: male, SD, rat, plasma, po, 4 mg/kg, mean value of 3 rats, read-out: Tmax.

The AUC(0-t) is exposure summed from dosing to a finite time, without extrapolation to infinity. Broadly, the Cmax is the maximum level reached in the sampled fluid or tissue. As usually defined, the Tmax is the time at which the peak concentration occurs. Usually AUC(0-inf) stands for total exposure, with the tail of the curve extrapolated. A higher AUC(0-inf) goes with more exposure. For orientation: half-life means the time needed for the level to fall by half in the phase considered.

Where “and” joins values, the source holds several entries; their conditions need not be identical. Equal entries are not always repeated. Where two headings read alike, the source gives them in different places.

c-Kit protein tyrosine kinase, sequence (P10721 26-976): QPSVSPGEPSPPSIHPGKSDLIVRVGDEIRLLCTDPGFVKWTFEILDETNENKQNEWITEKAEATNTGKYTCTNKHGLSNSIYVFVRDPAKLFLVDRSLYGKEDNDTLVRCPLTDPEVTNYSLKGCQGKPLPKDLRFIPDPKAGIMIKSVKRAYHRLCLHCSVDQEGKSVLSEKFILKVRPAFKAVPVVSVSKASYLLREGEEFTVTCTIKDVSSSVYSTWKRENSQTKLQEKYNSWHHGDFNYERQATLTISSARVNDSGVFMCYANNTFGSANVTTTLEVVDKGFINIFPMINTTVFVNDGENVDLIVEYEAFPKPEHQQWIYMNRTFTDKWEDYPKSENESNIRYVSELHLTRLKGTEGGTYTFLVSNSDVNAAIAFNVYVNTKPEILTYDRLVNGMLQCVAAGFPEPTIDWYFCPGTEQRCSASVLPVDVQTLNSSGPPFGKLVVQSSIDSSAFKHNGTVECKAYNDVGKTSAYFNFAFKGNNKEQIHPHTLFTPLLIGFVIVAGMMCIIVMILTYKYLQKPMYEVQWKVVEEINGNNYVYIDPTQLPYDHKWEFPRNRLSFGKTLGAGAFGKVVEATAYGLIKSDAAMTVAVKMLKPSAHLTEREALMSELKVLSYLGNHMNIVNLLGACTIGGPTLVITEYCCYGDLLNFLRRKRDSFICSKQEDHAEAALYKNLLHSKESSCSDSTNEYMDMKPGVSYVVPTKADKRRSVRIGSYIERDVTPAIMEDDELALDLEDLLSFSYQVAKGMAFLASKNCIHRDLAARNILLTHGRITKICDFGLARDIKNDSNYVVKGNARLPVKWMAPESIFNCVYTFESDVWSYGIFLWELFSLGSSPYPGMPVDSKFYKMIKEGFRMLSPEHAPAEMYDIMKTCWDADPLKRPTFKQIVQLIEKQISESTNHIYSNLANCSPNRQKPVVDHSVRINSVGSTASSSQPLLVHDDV
PDGFR-β protein tyrosine kinase, sequence (P09619 33-1106): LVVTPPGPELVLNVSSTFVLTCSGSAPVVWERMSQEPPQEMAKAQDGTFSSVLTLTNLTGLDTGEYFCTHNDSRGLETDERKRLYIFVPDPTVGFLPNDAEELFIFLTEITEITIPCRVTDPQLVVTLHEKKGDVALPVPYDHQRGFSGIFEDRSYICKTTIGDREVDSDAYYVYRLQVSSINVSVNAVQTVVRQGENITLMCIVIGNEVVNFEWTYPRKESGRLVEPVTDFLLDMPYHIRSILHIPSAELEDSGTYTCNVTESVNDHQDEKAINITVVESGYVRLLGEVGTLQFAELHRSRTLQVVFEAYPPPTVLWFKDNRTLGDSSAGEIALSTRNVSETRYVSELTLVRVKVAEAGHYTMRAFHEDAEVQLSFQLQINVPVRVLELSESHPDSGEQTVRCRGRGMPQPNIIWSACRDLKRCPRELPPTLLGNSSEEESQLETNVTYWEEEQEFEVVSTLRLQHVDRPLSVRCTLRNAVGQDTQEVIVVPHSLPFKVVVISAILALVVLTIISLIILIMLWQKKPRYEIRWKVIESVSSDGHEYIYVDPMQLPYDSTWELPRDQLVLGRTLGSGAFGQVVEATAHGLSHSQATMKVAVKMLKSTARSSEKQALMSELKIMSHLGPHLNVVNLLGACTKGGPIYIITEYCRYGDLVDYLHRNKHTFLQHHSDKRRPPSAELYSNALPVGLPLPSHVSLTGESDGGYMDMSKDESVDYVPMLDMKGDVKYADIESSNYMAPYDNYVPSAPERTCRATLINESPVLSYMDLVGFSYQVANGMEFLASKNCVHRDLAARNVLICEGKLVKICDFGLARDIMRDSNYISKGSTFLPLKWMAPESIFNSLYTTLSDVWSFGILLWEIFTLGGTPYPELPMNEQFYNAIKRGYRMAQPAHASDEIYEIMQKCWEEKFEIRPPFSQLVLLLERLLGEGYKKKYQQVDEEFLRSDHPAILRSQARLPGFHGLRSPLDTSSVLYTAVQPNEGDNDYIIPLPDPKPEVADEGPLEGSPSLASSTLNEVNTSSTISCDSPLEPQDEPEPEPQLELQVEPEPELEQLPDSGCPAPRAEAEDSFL

`CNC(=O)c1cc(Oc2ccc(NC(=O)Nc3ccc(Cl)c(C(F)(F)F)c3)cc2)ccn1` [CM4306, 4-(4-(3-(4-chloro-3-(trifluoromethyl)phenyl]ureido)-phenoxy)-(N-methyl)picolinamide]: the “results (inhibition efficacy)” value in series [1] is listed as “effective”. Besides, in series [2] (individual rat, 4 mg/kg), the “AUC(0-t)” value was 23431 ng·h/mL and 40239 ng·h/mL and 24571 ng·h/mL; the “AUC(0-∞)” value is 41544 ng·h/mL and 25008 ng·h/mL; the highest concentration (Cmax) was 642 ng/mL and 1568 ng/mL and 651 ng/mL; the “MRT(0-∞)” value was 23.2 h and 23.9 h. Moreover, in series [2] (individual rat, 4 mg/kg), the Tmax was 8.0 h and 2.0 h. In series [2] (setting [5]), the AUC(0-inf) is 24600 ng·h/mL, the half-life is 14.8 h and the MRT inf is 28.2 h. Moreover, in series [2] (setting [6]), the total exposure AUC(0-inf) was found to be 30400 ng·h/mL and the MRT inf stood at 25.1 h. Also, in series [2] (setting [7]), the maximum concentration (Cmax) turned out to be 954 ng/mL. In addition, in series [2] (setting [8]), the Tmax amounted to 6 h. The “AUC(0-t)” value in series [2] (mean value of 3 rats) was 29414 ng·h/mL.
Regarding `CNC(=O)c1cc(Oc2ccc(NC(=O)Nc3ccc(Cl)c(C(F)(F)F)c3)c(F)c2)ccn1` [CM4308, 4-(4-(3-(4-chloro-3-(trifluoromethyl)phenyl]ureido)-3-fluorophenoxy)-N-methylpicolinamide], the “results (inhibition efficacy)” value in series [1] is recorded as “effective”. In series [2] (individual rat, 4 mg/kg), the “AUC(0-t)” value is 11473 ng·h/mL and 9327 ng·h/mL and 18558 ng·h/mL; the “AUC(0-∞)” value was 9541 ng·h/mL and 18973 ng·h/mL; the Cmax is 378 ng/mL and 279 ng/mL and 817 ng/mL; the “MRT(0-∞)” value was 24.1 h and 21.7 h. In series [2] (individual rat, 4 mg/kg), the T1/2 was 11.7 h and 11.4 h; the time of peak concentration (Tmax) was 8.0 h and 6.0 h and 1.0 h. Moreover, in series [2] (setting [5]), the AUC(0-inf) was determined as 11600 ng·h/mL, the half-life is 10.1 h and the MRT inf came to 21 h. Besides, in series [2] (setting [6]), the AUC(0-inf) turned out to be 13400 ng·h/mL, the half-life is 11.1 h and the MRT inf is 22.2 h. Besides, in series [2] (setting [7]), the Cmax was determined as 491 ng/mL. Besides, the time of peak concentration (Tmax) in series [2] (setting [8]) is 5 h. Also, the exposure AUC(0-t) in series [2] (mean value of 3 rats) worked out at 13119 ng·h/mL. The “relative tumor increment rate T/C %” value in series [3] is recorded as 51.6%.
For `[2H]C([2H])([2H])NC(=O)c1cc(Oc2ccc(NC(=O)Nc3ccc(Cl)c(C(F)(F)F)c3)c(F)c2)ccn1` [CM4309, 4-(4-(3-(4-chloro-3-(trifluoromethyl)phenyl]ureido)-3-fluorophenoxy)-N-(methyl-d3)picolinamide], in series [1], the “results (inhibition efficacy)” value is “effective”. Further, in series [2] (individual rat, 4 mg/kg), the “AUC(0-t)” value was 22220 ng·h/mL and 35592 ng·h/mL and 25601 ng·h/mL; the “AUC(0-∞)” value is 41702 ng·h/mL and 28899 ng·h/mL; the Cmax was 933 ng/mL and 530 ng/mL; the “MRT(0-∞)” value was 39.1 h and 36.7 h. Besides, in series [2] (individual rat, 4 mg/kg), the T1/2 was 23.4 h and 20.9 h; the Tmax was 24.0 h and 1.0 h and 8.0 h. In series [2] (setting [5]), the area under the curve AUC(0-inf) stood at 27400 ng·h/mL, the half-life is 26.7 h and the MRT inf is 45.9 h. The Cmax in series [2] (male, SD, rat, plasma, po, 4 mg/kg, individual rat, read-out: Cmax) was found to be 470 ng/mL. In series [2] (setting [6]), the area under the curve AUC(0-inf) turned out to be 32700 ng·h/mL, the half-life is 23.7 h and the MRT inf was 40.6 h. Moreover, the maximum concentration (Cmax) in series [2] (setting [7]) stood at 644 ng/mL. Moreover, the Tmax in series [2] (setting [8]) is 11 h. Moreover, in series [2] (mean value of 3 rats), the “AUC(0-t)” value was 27804 ng·h/mL. Also, the “relative tumor increment rate T/C %” value in series [3] was 27.0% and < 40%. In series [3] (p<0.01 vs control group), the “effect on tumor growth (tumor volume vs control group)” value was “significant effect in inhibiting tumor growth”.
`CCN(CC)CCNC(=O)c1c(C)[nH]c(/C=C2\C(=O)Nc3ccc(F)cc32)c1C` [Su11248]: in series [1] (10 μM compound, ATP 5 μM, mean of duplicate experiments), the “% Inhibition ratio for inhibiting tyrosine kinase at 10 μM, c-Kit mean value” is 90.2%. The “results (inhibition efficacy)” value in series [1] was “effective”. In series [4], the “% Inhibition ratio for inhibiting tyrosine kinase at 10 μM, PDGFR-β mean value” was 93.9%.
